Experimental data: patent publication US6905714B2, “Method for modulating steroidogenic activity” (priority 2000, dated 2005)
Entries after “also recorded” stand apart in the source; their conditions may differ.

What was measured:
[1] = test system: ventral prostate gland, immature Wistar rats; assay: Growth of the ventral prostate gland in immature Wistar rats; assay type: in vivo, rat; details: testosterone intramuscularly, alone (FIG. 6a)
Method: The growth of the ventral prostate gland, an androgen-dependent tissue, in immature Wistar rats was measured.
To determine the androgenic effect of an ethanolic EU extract in animals, the growth of the ventral prostate gland, an androgen-dependent tissue, in immature Wistar rats was measured. […] In this model, exogenous androgen administration can be directly correlated with the growth of the ventral prostate.

progesterone receptor = target: T1, progesterone receptor (Homo sapiens, UniProt P06401); assay: Progesterone receptor transactivation, luciferase reporter in HeLa cells
T1 sequence (P06401 1-933): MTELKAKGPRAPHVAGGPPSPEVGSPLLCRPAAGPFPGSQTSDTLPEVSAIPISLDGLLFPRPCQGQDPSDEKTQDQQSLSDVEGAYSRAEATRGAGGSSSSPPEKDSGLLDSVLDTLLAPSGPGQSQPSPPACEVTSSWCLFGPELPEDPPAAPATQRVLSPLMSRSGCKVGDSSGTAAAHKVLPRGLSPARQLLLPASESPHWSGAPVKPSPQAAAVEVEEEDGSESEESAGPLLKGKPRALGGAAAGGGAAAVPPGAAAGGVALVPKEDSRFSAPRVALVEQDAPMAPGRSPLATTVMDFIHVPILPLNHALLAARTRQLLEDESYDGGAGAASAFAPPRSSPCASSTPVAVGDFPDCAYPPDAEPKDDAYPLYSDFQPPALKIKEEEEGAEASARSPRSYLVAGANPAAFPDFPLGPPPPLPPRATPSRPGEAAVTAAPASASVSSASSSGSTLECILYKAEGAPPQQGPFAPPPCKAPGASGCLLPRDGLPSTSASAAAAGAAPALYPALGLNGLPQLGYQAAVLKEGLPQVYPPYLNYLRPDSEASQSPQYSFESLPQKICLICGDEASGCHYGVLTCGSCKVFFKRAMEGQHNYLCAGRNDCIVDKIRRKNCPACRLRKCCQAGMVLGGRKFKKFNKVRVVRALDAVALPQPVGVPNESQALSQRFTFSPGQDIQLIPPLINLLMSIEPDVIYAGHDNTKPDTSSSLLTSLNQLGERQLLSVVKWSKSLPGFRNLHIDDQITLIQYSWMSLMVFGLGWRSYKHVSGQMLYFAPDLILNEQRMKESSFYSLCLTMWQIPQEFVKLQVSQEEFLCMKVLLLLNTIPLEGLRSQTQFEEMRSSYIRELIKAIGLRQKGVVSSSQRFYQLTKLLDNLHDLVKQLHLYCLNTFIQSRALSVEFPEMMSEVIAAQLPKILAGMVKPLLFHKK
Method: (§1) Thus, HeLa cells were cotransfected with an androgen receptor (AR) expression plasmid, a plasmid for expression of β-galactosidase (β-gal) and a luciferase reporter plasmid, ARE-Tata-luc (Jenster 1997) and then incubated with ethanol as a solvent control, or with the herbal extracts indicated in Table 1. Herbal extracts were added to the cells six hours after transfection. Thirty-six hours later, the cells were harvested and cell extracts assayed for luciferase activity.
(§2) The DNA mix contained an AR expression vector, a reporter gene vector (ARE-Tata-Luc) and a βGal vectors, the last for purposes of normalizing results for the transfection efficiency. The AR expression vector comprises a cDNA encoding AR and expressed from a SV40 promoter and a rabbit β-globin polyadenylation signal, all cloned in a pBR328 vector. The β-gal vector comprises a bacterial lacZ gene under control of an SV40 promoter-enhancer. The DNA mix was preincubated for 45 min at room temperature with lipofectamine (Promega, Madison, Wis.) in a 400 μl serum-free medium. […] Cell lysates (100 μl) were added to 20 μl of luciferase substrate and luciferase activity measured with a luminometer. Transfection efficiency was assessed by βGal activity and luciferase activity normalized to the protein content of the cell lysates. Total protein in the supernatant was quantified with bovine serum albumin as the standard.

glucocorticoid receptor = target: T2, glucocorticoid receptor (Homo sapiens, UniProt P04150); assay: Glucocorticoid receptor transactivation, luciferase reporter in HeLa cells; assay type: cell-based
T2 construct: expressed in transfected cells
T2 sequence (P04150 1-777): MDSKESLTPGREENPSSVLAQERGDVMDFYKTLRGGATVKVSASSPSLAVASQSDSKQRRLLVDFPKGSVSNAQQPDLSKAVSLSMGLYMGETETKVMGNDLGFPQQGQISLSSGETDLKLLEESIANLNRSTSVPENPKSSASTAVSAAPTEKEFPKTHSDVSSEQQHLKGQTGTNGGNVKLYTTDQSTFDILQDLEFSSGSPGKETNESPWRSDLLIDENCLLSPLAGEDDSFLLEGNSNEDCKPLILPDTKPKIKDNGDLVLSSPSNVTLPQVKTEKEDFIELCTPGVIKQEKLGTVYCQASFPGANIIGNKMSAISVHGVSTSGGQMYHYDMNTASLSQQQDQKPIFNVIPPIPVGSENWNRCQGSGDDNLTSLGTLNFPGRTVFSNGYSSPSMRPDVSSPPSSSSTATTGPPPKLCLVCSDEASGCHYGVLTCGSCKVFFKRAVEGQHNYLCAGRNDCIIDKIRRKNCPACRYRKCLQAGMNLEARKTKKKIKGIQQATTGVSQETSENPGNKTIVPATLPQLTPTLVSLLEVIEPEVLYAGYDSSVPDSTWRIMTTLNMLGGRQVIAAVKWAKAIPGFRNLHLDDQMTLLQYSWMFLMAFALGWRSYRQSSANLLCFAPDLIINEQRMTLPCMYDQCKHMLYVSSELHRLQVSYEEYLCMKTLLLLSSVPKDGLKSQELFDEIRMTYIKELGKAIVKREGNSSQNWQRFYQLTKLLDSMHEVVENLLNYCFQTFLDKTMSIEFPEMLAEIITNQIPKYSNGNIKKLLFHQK
Method: as §1, §2

androgen receptor = target: T3, androgen receptor (Homo sapiens, UniProt P10275); details: 0.3 to 10 nM; 3 nM tritiated testosterone
T3 sequence (P10275 1-920): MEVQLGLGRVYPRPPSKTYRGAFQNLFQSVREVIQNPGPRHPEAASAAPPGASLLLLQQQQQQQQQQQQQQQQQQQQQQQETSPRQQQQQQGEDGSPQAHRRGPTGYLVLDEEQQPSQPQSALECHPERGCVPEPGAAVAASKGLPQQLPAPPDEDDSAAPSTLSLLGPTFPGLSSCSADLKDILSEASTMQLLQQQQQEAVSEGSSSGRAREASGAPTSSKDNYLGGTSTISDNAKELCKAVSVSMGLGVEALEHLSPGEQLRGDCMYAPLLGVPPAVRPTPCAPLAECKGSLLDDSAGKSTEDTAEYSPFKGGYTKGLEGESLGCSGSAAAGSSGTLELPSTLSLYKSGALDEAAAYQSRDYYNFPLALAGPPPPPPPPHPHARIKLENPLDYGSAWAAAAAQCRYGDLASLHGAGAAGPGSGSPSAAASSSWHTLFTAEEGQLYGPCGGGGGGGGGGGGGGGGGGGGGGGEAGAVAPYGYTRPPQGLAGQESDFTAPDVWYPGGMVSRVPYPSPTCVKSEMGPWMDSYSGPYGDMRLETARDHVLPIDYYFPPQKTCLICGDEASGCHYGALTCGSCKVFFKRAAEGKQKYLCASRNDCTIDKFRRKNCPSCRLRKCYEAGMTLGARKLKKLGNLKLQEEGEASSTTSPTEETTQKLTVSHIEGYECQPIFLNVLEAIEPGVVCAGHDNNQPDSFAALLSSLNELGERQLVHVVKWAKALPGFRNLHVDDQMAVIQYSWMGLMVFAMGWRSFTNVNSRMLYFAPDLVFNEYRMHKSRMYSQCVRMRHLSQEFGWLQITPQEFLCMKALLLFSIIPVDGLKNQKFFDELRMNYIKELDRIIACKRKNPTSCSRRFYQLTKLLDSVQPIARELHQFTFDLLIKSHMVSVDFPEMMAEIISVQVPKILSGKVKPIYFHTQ

## C[C@]12CC[C@H]3[C@@H](CCC4=CC(=O)CC[C@@]43C)[C@@H]1CC[C@@H]2O [testosterone]
[1]
  prostate weight (per unit body weight): dose-dependent increase in prostate weight; also recorded: dose-dependent increments in prostatic weight

## CC(=O)[C@H]1CC[C@H]2[C@@H]3CCC4=CC(=O)CC[C@]4(C)[C@H]3CC[C@]12C [Progesterone, progesterone]
Progesterone receptor; substance alone
  Ratio of Luc activity as percentage (%) of 1 nM ligand: 100%
Progesterone receptor; substance alone (extract, or 1 nM progesterone)
  Luc activity (fold induction): 67 fold

## C[C@]12CCC(=O)C=C1CC[C@@H]1[C@@H]2[C@@H](O)C[C@@]2(C)[C@H]1CC[C@]2(O)C(=O)CO [Cortisol, cortisol]
Glucocorticoid receptor; substance alone
  Ratio of Luc activity as percentage (%) of 1 nM ligand: 100%
Glucocorticoid receptor; substance alone (extract, or 1 nM cortisol)
  Luc activity (fold induction): 194 fold
Androgen receptor
  displacement of tritiated testosterone: does not displace tritiated testosterone
